Common to all, as to test: growth of human tumour cells (NCI), 48 h
Assay [1] relates to NCI-H226 lung.
Assay [2] relates to CCRF-CEM leukemia.
In assay [3] the test system is COLO 205 colon.
The subject of assay [4] is A549 NSCLC.
The subject of assay [5] is IGROV1 ovarian.
Assay [6] has as its system RPMI-8226 leukemia.
Assay [7] has as its system SF-268 CNS.
Assay [8] deals with MDA-MB-435.
For assay [9], the system named is MALME-3M melanoma.
For assay [10], the system named is A498 renal.

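Briefly, cells in 96-well plates were exposed to five compound concentrations for 48 h, and endpoints were estimated by linear interpolation. The concentration for 50% growth inhibition is given as GI50. The concentration for full growth arrest is given as TGI.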 Some results are limits rather than exact numbers.

On to `Cc1cc(S(N)(=O)=O)c(S/C(=N\NS(=O)(=O)c2ccc(Cl)cc2)c2ccc(Cl)cc2)cc1Cl`, for which the GI50 was 92.4 µM in assay [1]; 61 µM in [2]; 85.2 µM in assay [3]; 49.1 µM in [4]; above 100 µM in assay [5]; 22 µM in [6]. Further, the GI50 in assay [7] and in [8] was above 100 µM in each case. The TGI in [1], in assay [2], in assay [3], in [4], in assay [5] and in [6] was above 100 µM throughout. Also, the TGI in [7] and in [8] was above 100 µM each time.

`CCC(=O)O[C@@H]1C2C(OC(C)=O)C34COC(C)([C@@H]3C3C(C[C@]3(C)OC(C)=O)[C@@H](OC(=O)c3ccccc3)C4=O)[C@H](OC(C)=O)[C@@]2(OC(C)=O)C[C@@H]1C` (some centres not stated): the TGI in [1] is 41.4 µM; in assay [9], above 100 µM; in [2], 36.8 µM; in assay [3], above 100 µM; in assay [4] it was above 100 µM; in [5] it was 40 µM. Besides, the TGI in [6] and in assay [7] was above 100 µM each time.

Turning to `Cc1ccccc1NC(=O)c1[nH]c(=S)nc(N)c1-c1ccccc1C`, the TGI in [1], in [9], in assay [2], in [3], in assay [4] and in assay [5] was above 100 µM throughout. For the same compound, the TGI in assay [6], in assay [10] and in [7] was above 100 µM each time.

Consider `C/C=C/C1(NS(=O)(=O)c2ccc(C)cc2)CCC(C(C)(C)C)CC1` (configuration not stated), for which the TGI in [1] is 44.4 µM; in assay [9], 49.4 µM; in [2], 43.2 µM; in assay [3] it was 42.3 µM; in [4], above 100 µM; in [5] it was 77.2 µM. The TGI is 47.1 µM in assay [6], 49.3 µM in assay [10] and 59.5 µM in assay [7].

With `COC(=O)/C(C#N)=C1\N=NNN1CCCc1ccccc1`, the TGI in assay [1], in assay [9], in assay [2], in [3], in [4] and in assay [5] was above 100 µM in each case. For the same compound, the TGI in assay [6] and in assay [10] was above 100 µM each time.

With `COc1nc2c(nc(N)n2C2OC(CO)C(O)C(O)C2O)c(=O)n1C` (configuration not stated), the TGI in [1], in assay [9], in assay [2], in [3], in [4] and in assay [5] was above 100 µM in each case. In addition, the TGI in assay [10] and in assay [7] was above 100 µM in each case.

As to `O=C(NC(=S)NS(=O)(=O)c1ccc(N2N=C3c4ccccc4CC3C2c2cccs2)cc1)c1ccccc1` (configuration not stated), the GI50 is 27.9 µM in [2]; 38.4 µM in assay [3]; 20.3 µM in assay [4]; 3.14 µM in [5]; 29.7 µM in [6]; above 100 µM in assay [7]. Further, the GI50 in assay [8] was 21.7 µM. Moreover, the TGI in assay [2], in [3], in assay [4], in [5], in assay [6] and in assay [7] was above 100 µM each time. The compound also gave a TGI in [8] of 60.6 µM.

For the compound `Cc1cc2c(=O)cc(-c3ccc(Cl)cc3)oc2c(C(=O)O)c1C`, the TGI in assay [1], in [9], in [2], in assay [3], in assay [4] and in [5] was above 100 µM in each case. Also, the TGI in assay [6] and in assay [7] was above 100 µM each time.

Turning to `Cc1cc(Cl)ccc1N1C(=O)C(=O)C(c2nc3ccccc3s2)C(=O)C1=O`, the TGI in [1], in assay [9], in assay [2], in assay [3], in [4] and in [5] was above 100 µM throughout. In addition, the TGI in assay [6], in [10] and in [7] was above 100 µM in each case.

On to `O=C1c2cc3c(cc2-c2c1c1ccc([N+](=O)[O-])cc1c(=O)n2CCCCl)OCO3`, for which the GI50 in assay [1] was 0.409 µM; in assay [2], 0.279 µM; in [3], 0.567 µM; in assay [4], 0.523 µM; in assay [6], 0.275 µM; in assay [10], 0.367 µM. Also, the GI50 was 0.102 µM in assay [7] and 1.22 µM in assay [8]. Further, the TGI in assay [1] is 9.09 µM; in [2] it was above 100 µM; in assay [3] it was above 100 µM; in [4], above 100 µM; in [6] it was above 26.6 µM; in assay [10] it was 5.93 µM. Moreover, the TGI in [7] and in assay [8] was above 100 µM each time.

In the case of `COc1ccccc1NC(=O)C1=C(C)NC(C)=C(C(=O)Nc2ccccc2OC)C1c1ccc(C(C)C)cc1`, the TGI in [1] was above 100 µM; in assay [9] it was above 100 µM; in assay [2] it was above 1 µM; in [3], above 100 µM; in assay [4] it was above 100 µM; in assay [5], above 100 µM. Besides, the TGI in assay [6], in assay [10] and in [7] was above 100 µM throughout.

In the case of `O=C(/C=C/c1ccccc1F)C(c1ccccc1)c1ccccc1`, the TGI in assay [1] was 25.3 µM; in assay [9], 23.7 µM; in assay [2] it was 6.32 µM; in [4], 17.4 µM; in [5], 30.7 µM; in [6] it was above 100 µM. For the same compound, the TGI in assay [7] came out at 11.3 µM.

Turning to `C[Si](C)(C)/C(Br)=C\CCN1C(=O)CCC1O` (configuration not stated), the TGI in assay [1], in assay [9], in assay [2], in assay [3], in assay [4] and in assay [5] was above 100 µM each time. Also, the TGI in assay [6], in assay [10] and in assay [7] was above 100 µM each time.

With `CN(C)/[N+]([O-])=N/Oc1cc(Nc2ccc(C(=O)O)cc2)c([N+](=O)[O-])cc1[N+](=O)[O-]`, the GI50 in assay [1] is 27.4 µM; in assay [3], 28.2 µM; in assay [4], 75 µM; in assay [5], 14.9 µM; in assay [6] it was 23.6 µM; in [7] it was 20.4 µM. The GI50 in assay [8] was 19.8 µM. Besides, the TGI is 70.4 µM in [1]; 63.5 µM in [3]; above 100 µM in [4]; 34.4 µM in assay [5]; above 100 µM in [6]; 40.1 µM in assay [7]. This compound also displayed a TGI in assay [8] of 39.2 µM.

For the compound `Cc1ccc(S(=O)(=O)N2CCCCC2CCO)cc1` (configuration not stated), the TGI in [1], in [9], in assay [2], in assay [3], in assay [4] and in assay [5] was above 100 µM each time. Besides, the TGI in assay [6], in [10] and in assay [7] was above 100 µM each time.

In the case of `O=C1C(c2ccccc2)=C(c2ccccc2)C(c2ccccc2)/C1=C1\C(=O)C(c2ccccc2)=C(c2ccccc2)C1c1ccccc1` (configuration not stated), the TGI in [1], in [9], in assay [3], in [4], in assay [5] and in [6] was above 100 µM in each case. Besides, the TGI in [10] and in assay [7] was above 100 µM each time.

As for `CCOc1ccc(NC(=O)C2=C(C)NC(C)=C(C(=O)Nc3ccc(OCC)cc3)C2c2ccc([N+](=O)[O-])cc2)cc1`, the TGI is above 100 µM in assay [1]; above 100 µM in assay [9]; 90.8 µM in assay [2]; 53.3 µM in assay [3]; above 100 µM in assay [4]; above 100 µM in assay [5]. In addition, the figures for the TGI in assay [6], in assay [10] and in assay [7] were 64.2 µM, 66.2 µM and above 100 µM, respectively.

Consider `N#C/C(=C/N1CCN(C(=O)c2ccco2)C1=S)C(N)=O`, for which the GI50 was 12.5 µM in assay [9]; above 100 µM in assay [2]; 24.9 µM in assay [3]; 34.5 µM in assay [4]; 24 µM in assay [5]; 12.4 µM in [6]. Moreover, the results for the GI50 in [7] and in assay [8] were 11.7 µM and 14.6 µM, respectively. Moreover, the TGI was 56.8 µM in assay [9]; above 100 µM in [2]; above 100 µM in [3]; above 100 µM in assay [4]; 86.8 µM in assay [5]; above 100 µM in [6]. Moreover, the TGI in assay [7] stood at 36.4 µM; in assay [8], 44.1 µM.

Turning to `Oc1ccc2ccccc2c1/C=N\Nc1ccccn1`, the GI50 in assay [1] is 2.2 µM; in assay [2], 0.328 µM; in assay [3] it was 27.6 µM; in assay [5] it was 0.273 µM; in assay [6] it was 0.654 µM; in assay [10], 1.25 µM. Moreover, the GI50 in assay [7] is 0.436 µM; in [8], 0.752 µM. In addition, the TGI in assay [1] is above 41.9 µM; in assay [3], above 100 µM; in assay [5], 2.05 µM; in [6], above 100 µM; in assay [10], 7.03 µM; in assay [7], above 100 µM. The same compound returned a TGI in assay [8] above 100 µM.

With `NS(=O)(=O)c1ccc(-n2nc(-c3ccc(Cl)cc3)cc2C2=CC(=O)C=CC2=O)cc1`, the GI50 in assay [1] is 13.8 µM; in assay [2], 3.57 µM; in assay [4], 30 µM; in assay [5], 39.6 µM; in [6], 6.86 µM; in [10] it was 22.8 µM. Moreover, the values for the GI50 in assay [7] and in assay [8] were 24.6 µM and 22.9 µM, respectively. The TGI in assay [1] was 34.4 µM; in assay [2], above 100 µM; in [4], above 100 µM; in assay [5] it was above 100 µM; in assay [6] it was 33.4 µM; in [10], 70.2 µM. Further, the TGI in [7] stood at 50.4 µM; in [8], 67.1 µM.

For `CC(=O)O[C@H]1CC[C@@]2(C)C(=CC[C@@H]3C2CC[C@]2(C)Nc4oncc4CC32)C1` (some centres not stated), the TGI in assay [1] is 49.5 µM; in [9] it was 82.2 µM; in [2] it was 23 µM; in [4] it was 83.6 µM; in assay [5], above 100 µM; in assay [6], 43.8 µM. For the same compound, the TGI in assay [10] was above 100 µM.

For `Cc1cc(Cl)ccc1NC(=O)C1C(=O)N(c2ccc(Cl)cc2C)C(=O)/C1=N\N` (configuration not stated), the TGI in assay [1] is 93.8 µM; in assay [9], above 100 µM; in [2], above 100 µM; in assay [3], above 100 µM; in [4] it was above 100 µM; in assay [5], above 100 µM. For the same compound, the TGI was above 100 µM in assay [6], 93.7 µM in [10] and 96.4 µM in assay [7].

As to `Cc1cccc(C)c1NC(=O)C(=O)C1C(=O)N(c2ccccc2)N=C1N` (configuration not stated), the TGI in assay [1], in assay [9], in assay [2], in assay [3], in [4] and in assay [5] was above 100 µM each time. The TGI in [6], in [10] and in [7] was above 100 µM throughout.

Regarding `N#CC(C#N)=C1NC(=O)C(c2ccccc2)C(=O)N1` (configuration not stated), the TGI in [1], in [9], in assay [2], in assay [3], in assay [4] and in assay [5] was above 100 µM in each case. The TGI in assay [6], in [10] and in [7] was above 100 µM in each case.

Turning to `Cc1ccc(/C=C2\CCOC2=O)cc1`, the GI50 in assay [1] is above 100 µM; in [9] it was above 100 µM; in assay [2], above 100 µM; in [3], above 100 µM; in assay [4], above 100 µM; in assay [5], 82.5 µM. The values for the GI50 in assay [10] and in assay [7] were 11.8 µM and 60.2 µM, respectively. Moreover, the TGI in [1], in [9], in assay [2], in assay [3], in [4] and in assay [5] was above 100 µM throughout. For the same compound, the TGI is 97.3 µM in assay [10] and above 100 µM in [7].

Values taken from PubChem BioAssay (NCI).
